Measured values: US7265125B2, “Neuropeptide Y antagonists” (Hoffmann-La Roche Inc., priority 2000, dated 2007)

Experiments:
[1] = biological target: T1, mouse NPY5-receptor (mNPY5) (Mus musculus, UniProt O70342); assay: Radioligand competition binding; details: HEK293 membranes expressing recombinant mNPY5; 100 pM [125I]labelled peptide YY; 1 h at 22° C.
T1 construct: The full-length cDNA encoding the mouse NPY5 (mNPY5) receptor was amplified from mouse brain cDNA; expressed in transfected cells; membrane preparation
T1 sequence (O70342 1-466): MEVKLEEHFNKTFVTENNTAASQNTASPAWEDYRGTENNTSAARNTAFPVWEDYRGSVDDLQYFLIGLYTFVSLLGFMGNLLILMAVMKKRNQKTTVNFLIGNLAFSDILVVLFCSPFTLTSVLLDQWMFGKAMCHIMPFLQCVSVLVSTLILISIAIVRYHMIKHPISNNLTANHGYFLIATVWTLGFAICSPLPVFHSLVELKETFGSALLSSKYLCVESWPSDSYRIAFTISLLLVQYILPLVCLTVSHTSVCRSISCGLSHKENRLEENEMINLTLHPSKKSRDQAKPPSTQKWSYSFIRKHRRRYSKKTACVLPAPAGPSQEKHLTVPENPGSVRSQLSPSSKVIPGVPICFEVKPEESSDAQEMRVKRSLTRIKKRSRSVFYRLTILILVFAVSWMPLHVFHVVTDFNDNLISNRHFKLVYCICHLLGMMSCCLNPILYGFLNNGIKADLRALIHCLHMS
Text: The full-length cDNA encoding the mouse NPY5 (mNPY5) receptor was amplified from mouse brain cDNA using specific primers, designed based on the published sequence, and Pfu DNA-Polymerase (Stratagene). The amplification product was subcloned into the mammalian expression vector pcDNA3 using Eco RI and XhoI restriction sites. Positive clones were sequenced and one clone, encoding the published sequence was selected for generation of stable cell clones.
Human embryonic kidney 293 (HEK293) cells were transfected with 10 μg mNPY5 DNA using the lipofectamine reagent (Gibco BRL) according to the manufacturer's instruction. Two days after transfection, geneticin selection (1 mg/ml) was initiated and several stable clones were isolated. One clone was further used for pharmacological characterization.
Human embryonic kidney 293 cells (HEK293), expressing recombinant mouse NPY5-receptor (mNPY5) were broken by three freeze/thawing cycles in hypotonic Tris buffer (5 mM, pH 7.4, 1 mM MgCl2), homogenized and centrifuged at 72,000×g for 15 min. The pellet was washed twice with 75 mM Tris buffer, pH 7.4, containing 25 mM MgCl2 and 250 mM sucrose, 0.1 mM phenylmethylsulfonylfluoride and 0.1 mM 1,10-pheneanthrolin, resuspended in the same buffer and stored in aliquots at −80° C. Protein was determined according to the method of Lowry using bovine serum albumine (BSA) as a standard. […]

IC50 [1] | melting point | SMILES
60 nM |  | COc1ccc(-c2ccc3c(N4CCCC4)cc(C)nc3c2)cc1 [Example 1.6, 7-(4-methoxy-phenyl)-2-methyl-4-pyrrolidin-1-yl-quinoline]
 | 122 to 123 °C | Cc1cc(N2CCCCC2)c2ccc(-c3cccs3)cc2n1 [Example 1.15, 2-methyl-4-piperidin-1-yl-7-thiophen-2-yl-quinoline]
 | 111 to 112 °C | Cc1cc(N2CCCCC2)c2ccc(-c3ccccc3)cc2n1 [Example 1.16, 2-methyl-7-phenyl-4-piperidin-1-yl-quinoline]
100 nM |  | Cc1cc(N2CCCCC2)c2ccc(-c3ccc4[nH]ccc4c3)cc2n1 [Example 1.17, 7-(1H-Indol-5-yl)-2-methyl-4-piperidin-1-yl-quinoline]
